Results published in patent US11464768B2, “Pimavanserin alone or in combination for use in the treatment of Alzheimer's disease psychosis” (ACADIA Pharmaceuticals Inc., priority 2016, dated 2022).

Experiments:
[1] = test system: hyperactivity induced by the N-methyl-D-aspartate antagonist MK-801; settings: mice; effective in these models at oral doses of 3 and 10 mg/kg; cited from earlier work
ADP patients [2] = test: Same twelve-week study: cognitive status by Mini-Mental State Examination (MMSE); assay type: in vivo, human; settings: 34 mg once daily; 12 week study
Protocol: In some embodiments the effect of the treatment is an antipsychotic effect, for example determined by an improved patient score in the Neuropsychiatric Inventory-Nursing Home Version (NPI-NH) psychosis scale, without impairing cognition, as determined by Mini-Mental State Examiner (MMSE) score. In some embodiment the antipsychotic effect without impairing cognition is determined over the 12 weeks of treatment. The MMSE is a brief 30-point questionnaire that is used to quantitatively assess cognition (Folstein et al., Journal of Psychiatric Research. 12 (3): 189-98, 1975). The MMSE test includes simple questions and problems in a number of areas: the time and place of the test, repeating lists of words, arithmetic, language use and comprehension, and copying a drawing. […]
Each patient participated in a 3-week screening period, a 12-week double-blind treatment period, and a 4-week follow-up period. […] The safety of subjects was assessed by monitoring adverse events, physical examinations, vital signs, clinical laboratory tests (hematology, clinical chemistry, and urinalysis), and electrocardiograms. Furthermore cognitive status was assessed via MMSE.

ADP patients [3] = test: Twelve-week randomized, double-blind, placebo-controlled study in ADP patients: NPI-NH psychosis score (Domains A and B); assay type: in vivo, human; settings: for improvement in psychosis at day 43 / improvement in psychosis at day 43 (NPI-NH Psychosis subscale): Table 2 Delta; for NPI-NH PSYCHOSIS SCORE at day 43, Effect Size: pimavanserin vs placebo
Source text: To determine the score for a given domain, the caregivers rate frequency and severity of the resident's behavior for that particular domain. The frequency is rated on a 0-4 point scale. For example, the frequency is rated as a) 0 for not present; b) 1 for occasional; c) 2 for often; d) 3 for frequent; and e) 4 for very frequent occurrence of the behavior in question. The severity is rated on a 1-3 point scale. For example, the severity is rated as a) 1 for mild; b) 2 for moderate; and 3 for severe. The score of each domain is determined by multiplying the frequency rating score by the severity rating score. The score of each domain ranges from 0 to 12.
A psychosis score on the psychosis subscale is the total score of the score of delusions (Domain A) and hallucinations (Domain B). For example, when the delusions score (Domain A) is 4 and the hallucinations score (Domain B) is 6, the psychosis score is 10. The psychosis score typically ranges from 0 to 24.
A twelve-week, randomized, double-blind, placebo-controlled, single-center study was conducted in ADP patients in nursing homes. A purpose of the study was to evaluate the safety and efficacy of 34 mg pimavanserin compared to placebo in the treatment of ADP.
A total of 181 nursing home patients were enrolled in the study and randomized on a one-to-one basis to receive either 34 mg of pimavanserin or placebo once daily for twelve weeks, following a three-week screening period including brief psycho-social therapy. Patients with Alzheimer's disease (AD) are defined by the National Institute of Neurological and Communicative Disorders and Stroke-Alzheimer's Disease and Related Disorder Association (NINCDS-ADRDA) criteria for possible or probable AD (McKhann et al., Neuro., 1984, vol. 34, 939-944.) The mean age of patients in the study was 86 years.
After completing initial Screening Visit procedures (SV1), patients entered a 3-week screening period with antipsychotic medication washout. During the screening period, the patients received brief psychosocial therapy (BPST; Ballard et al., 2009) following best practice guidelines and safety assessments were performed. After the first Screening Visit (SV1), there were two additional contacts at weekly intervals with the BPST caregiver by phone (SV2 and SV3) to support the patient and the BPST caregiver in this screening phase. Safety assessments were also collected during this phase. At the discretion of the investigator and upon consultation with the Medical Monitor, patients were randomized into the double-blind phase of the study at any time during the screening period if there is a substantial worsening of psychotic symptoms.
Patients were randomized to one of two treatment groups in a 1:1 ratio (pimavanserin 34 mg or placebo), stratified by Baseline Mini-Mental State Examination (MMSE) total score and Neuropsychiatric Inventory-Nursing Home Version (NPI-NH) psychosis score (Domains A and B) (4 levels: MMSE<6 and NPI-NH<12, MMSE>6 and NPI-NH<12, MMSE<6 and NPI-NH>12, MMSE>6 and NPI-NH>12), and entered a 12 week double-blind treatment period.
Nursing home staff administered the study drug to the patient each morning as a single oral dose (2×17 mg tablets) beginning within 24 hours of completion of all baseline assessments (Day 1). During the double-blind treatment period, study visits were performed as follows: Baseline, Day 15, Day 29, Day 43, Day 64, and Day 85 (or early termination). A follow-up telephone safety visit occurred 4 weeks after the last dose of study medication. The NPI-NH psychosis subscale (Delusions+Hallucinations domains) was used to assess psychosis. Behavioral symptoms were assessed using the NPI-NH Total and Individual Behavioral Domain scores and the Cohen-Mansfield Agitation Inventory—Short Form (CMAI-SF). […]

[4] = test system: DOI ((±)-2,5-dimethoxy-4-iodoamphetamine, a serotonin agonist) induced head twitches; settings: rat; effective in these models at oral doses of 3 and 10 mg/kg; cited from earlier work

For `CC(C)COc1ccc(CNC(=O)N(Cc2ccc(F)cc2)C2CCN(C)CC2)cc1` [Pimavanserin, N-(1-methylpiperidin-4-yl)-N-(4-fluorophenylmethyl)-N′-(4-(2-methylpropyloxy)phenylmethyl)carbamide], the “attenuation of hyperactivity induced by MK-801” value [1] is given as “active”, the “cognition as measured by the Mini-Mental State Examination (MMSE) score” value (ADP patients [2]) is given as “did not impair cognition” and the durability of efficacy (ADP patients [3]; 34 mg once daily, 12 week study) is given as “demonstrated an efficacy throughout the 12 week study”. The “NPI-NH PSYCHOSIS SCORE at day 43, Pimavanserin Group (change from baseline)” value (“NPI-NH PSYCHOSIS SCORE … (change from baseline)” for short) (ADP patients [3]; 34 mg once daily, subgroup Baseline Agitation/Aggression Score <6 (n = 85), post-hoc analysis) was −1.40, the “NPI-NH PSYCHOSIS SCORE … (change from baseline)” value (ADP patients [3]; 34 mg once daily, subgroup Baseline Agitation/Aggression Score ≥6 (n = 93), post-hoc analysis) was −6.09 and the “NPI-NH PSYCHOSIS SCORE … (change from baseline)” value (ADP patients [3]; 34 mg once daily, subgroup Baseline NPI-NH Psychosis Score <12 (n = 57), negative = improvement) was −0.58. For the same molecule, the “NPI-NH PSYCHOSIS SCORE … (change from baseline)” value (ADP patients [3]; 34 mg once daily, subgroup Baseline NPI-NH Psychosis Score ≥12 & Agitation/Aggression Score ≥6 (n = 38), post-hoc analysis) was −10.93, the “NPI-NH PSYCHOSIS SCORE … (change from baseline)” value (ADP patients [3]; 34 mg once daily, subgroup Baseline NPI-NH Psychosis score ≥12 (n = 121), negative = improvement) was −10.15 and the “NPI-NH PSYCHOSIS SCORE … (change from baseline)” value (ADP patients [3]; 34 mg once daily, subgroup No Prior Anti-psychotic use (n = 162)) was −4.15. For the same molecule, the “NPI-NH PSYCHOSIS SCORE … (change from baseline)” value (ADP patients [3]; 34 mg once daily, subgroup Prior Anti-psychotic use (n = 16)) was −1.52, the “improvement in psychosis, NPI-NH Psychosis score (combined hallucinations and delusions domains), primary endpoint” value (ADP patients [3]; 34 mg once daily, week 6, all patients, baseline mean 9.52, placebo 1.93 point, p=0.0451) was 3.76 point and the “improvement in psychosis at day 43” value (ADP patients [3]; baseline NPI-NH Psychosis score of 12 or greater and baseline Agitation/Aggression score of 6 or greater, p-value=0.0010) was 7.18. For the same molecule, the “effect on NPI-NH psychosis score (in words)” value (“effect … (in words)” below) (ADP patients [3]; baseline NPI-NH psychosis score of 12 or greater and baseline Agitation/Aggression score of 6 or greater, p=0.0010) was “effectively reduced”, the “improvement in psychosis at day 43” value (ADP patients [3]; patients having a baseline NPI-NH Agitation/Aggression score of 6 or greater, p-value=0.0010) was 4.41 point and the “effect … (in words)” value (ADP patients [3]; patients having a baseline NPI-NH Agitation/Aggression score of 6 or greater, p=0.001) was “effectively reduced”. The “aggravating in psychosis at day 43” value (ADP patients [3]; patients having a baseline NPI-NH Agitation/Aggression score of less than 6, p-value=NS) was 0.42, the “improvement in psychosis at day 43 (NPI-NH Psychosis subscale)” value (ADP patients [3]; patients having a baseline NPI-NH Psychosis score of 12 or greater, p-value=0.0114) was 4.43 point and the “effect … (in words)” value (ADP patients [3]; patients having a baseline NPI-NH psychosis score of 12 or greater, p=0.0114) was “effectively reduced”. For the same molecule, the “improvement in psychosis at day 43 (NPI-NH Psychosis subscale)” value (ADP patients [3]; patients having a baseline NPI-NH psychosis score of less than 12, p-value=NS) was 0.42, the “improvement in psychosis at day 43” value (ADP patients [3]; patients that had anti-psychotic use prior to the baseline measurement on day 0, p-value=NS) was 6.53 point and the “effect … (in words)” value (ADP patients [3]; patients who had prior anti-psychotic use) was “effectively reduced”. For the same molecule, the “reduction of mean NPI-NH Psychosis score from baseline” value (ADP patients [3]; pimavanserin arm, baseline NPI-NH Psychosis score of 12 or greater, baseline 15.30, day 43) was 66.3%, the “mean NPI-NH Psychosis score at day 43” value (ADP patients [3]; pimavanserin arm, baseline NPI-NH Psychosis score of 12 or greater, baseline score 15.30) was 5.15 and the “NPI-NH PSYCHOSIS SCORE at day 43, Effect Size” value (ADP patients [3]; subgroup Baseline Agitation/Aggression Score <6 (n = 85), post-hoc) was 0.122. For the same molecule, the “NPI-NH PSYCHOSIS SCORE at day 43, Effect Size” value (ADP patients [3]; subgroup Baseline Agitation/Aggression Score ≥6 (n = 93), post-hoc) was −0.778, the “NPI-NH PSYCHOSIS SCORE at day 43, Effect Size” value (ADP patients [3]; subgroup Baseline NPI-NH Psychosis Score <12 (n = 57)) was −0.077 and the “NPI-NH PSYCHOSIS SCORE at day 43, Effect Size” value (ADP patients [3]; subgroup Baseline NPI-NH Psychosis Score ≥12 & Agitation/Aggression Score ≥6 (n = 38), post-hoc) was −1.225. For the same molecule, the “NPI-NH PSYCHOSIS SCORE at day 43, Effect Size” value (ADP patients [3]; subgroup Baseline NPI-NH Psychosis score ≥12 (n = 121)) was −0.734, the “NPI-NH PSYCHOSIS SCORE at day 43, Effect Size” value (ADP patients [3]; subgroup No Prior Anti-psychotic use (n = 162)) was −0.351 and the “NPI-NH PSYCHOSIS SCORE at day 43, Effect Size” value (ADP patients [3]; subgroup Prior Anti-psychotic use (n = 16)) was −0.905. For the same molecule, the “NPI-NH PSYCHOSIS SCORE at day 43, Delta (difference between placebo group and pimavanserin group in change from baseline)” value (ADP patients [3]; subgroup Baseline Agitation/Aggression Score <6 (n = 85), post-hoc, P-Value NS) was 0.68, the “NPI-NH PSYCHOSIS SCORE at day 43, Delta (difference between placebo group and pimavanserin group in change from baseline)” value (ADP patients [3]; subgroup Baseline Agitation/Aggression Score ≥6 (n = 93), post-hoc, P-Value 0.0010) was −4.41 and the “NPI-NH PSYCHOSIS SCORE at day 43, Delta (difference between placebo group and pimavanserin group in change from baseline)” value (ADP patients [3]; subgroup Baseline NPI-NH Psychosis Score <12 (n = 57), P-Value NS) was −0.42. The “NPI-NH PSYCHOSIS SCORE at day 43, Delta (difference between placebo group and pimavanserin group in change from baseline)” value (ADP patients [3]; subgroup Baseline NPI-NH Psychosis Score ≥12 & Agitation/Aggression Score ≥6 (n = 38), post-hoc, P-Value 0.0010) was −7.18, the “NPI-NH PSYCHOSIS SCORE at day 43, Delta (difference between placebo group and pimavanserin group in change from baseline)” value (ADP patients [3]; subgroup Baseline NPI-NH Psychosis score ≥12 (n = 121), P-Value 0.0114) was −4.43 and the “NPI-NH PSYCHOSIS SCORE at day 43, Delta (difference between placebo group and pimavanserin group in change from baseline)” value (ADP patients [3]; subgroup No Prior Anti-psychotic use (n = 162), P-Value 0.0374) was −1.90. The “NPI-NH PSYCHOSIS SCORE at day 43, Delta (difference between placebo group and pimavanserin group in change from baseline)” value (ADP patients [3]; subgroup Prior Anti-psychotic use (n = 16), P-Value NS) was −6.53, the “treatment effect in patients with a concomitant Selective Serotonin Reuptake Inhibitor (SSRI) use” value (ADP patients [3]; subgroup analysis, compared with no concomitant SSRI use) was “treatment effect larger than those with no concomitant SSRI use” and the “efficacious effect relative to placebo” value (ADP patients [3]; worded as an embodiment) was “about 2 times”. The “activity in DOI induced head twitches” value [4] was “active”.
